# In PubChem BioAssay (NCI):
#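 Growth conditions: 96-well plates. Treatment: test compound, 48 hours, 5 concentrations. Analysis: linear interpolation between bracketing concentrations; unreached endpoints set to highest concentration. GI50 marks 50% less growth. Definition used: TGI = concentration required for complete inhibition of growth.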
# Tests used:
# Test in all cases: NCI tumour cell line growth inhibition, 48 h
# 786-0 renal = test system: 786-0 renal
# A498 renal = test system: A498 renal
# A549 NSCLC = test system: A549 NSCLC
# ACHN renal = test system: ACHN renal
# BT-549 breast = test system: BT-549 breast
# CAKI-1 renal = test system: CAKI-1 renal
# COLO 205 colon = test system: COLO 205 colon
# DU-145 prostate = test system: DU-145 prostate
# EKVX NSCLC = test system: EKVX NSCLC
# HCC-2998 colon = test system: HCC-2998 colon
# HCT-116 colon = test system: HCT-116 colon
# HCT-15 colon = test system: HCT-15 colon
# HL-60(TB) leukemia = test system: HL-60(TB) leukemia
# HOP-62 NSCLC = test system: HOP-62 NSCLC
# HOP-92 NSCLC = test system: HOP-92 NSCLC
# HS 578T breast = test system: HS 578T breast
# HT29 colon = test system: HT29 colon
# IGROV1 ovarian = test system: IGROV1 ovarian
# K-562 leukemia = test system: K-562 leukemia
# KM12 colon = test system: KM12 colon
# LOX IMVI melanoma = test system: LOX IMVI melanoma
# M14 melanoma = test system: M14 melanoma
# MALME-3M melanoma = test system: MALME-3M melanoma
# MCF7 breast = test system: MCF7 breast
# MDA-MB-435 = test system: MDA-MB-435
# MOLT-4 leukemia = test system: MOLT-4 leukemia
# NCI-H226 lung = test system: NCI-H226 lung
# NCI-H23 lung = test system: NCI-H23 lung
# NCI-H460 lung = test system: NCI-H460 lung
# NCI-H522 lung = test system: NCI-H522 lung
# NCI/ADR-RES ovarian = test system: NCI/ADR-RES ovarian
# OVCAR-3 ovarian = test system: OVCAR-3 ovarian
# OVCAR-4 ovarian = test system: OVCAR-4 ovarian
# OVCAR-5 ovarian = test system: OVCAR-5 ovarian
# OVCAR-8 ovarian = test system: OVCAR-8 ovarian
# PC-3 prostate = test system: PC-3 prostate
# RPMI-8226 leukemia = test system: RPMI-8226 leukemia
# SF-268 CNS = test system: SF-268 CNS
# SF-295 CNS = test system: SF-295 CNS
# SF-539 CNS = test system: SF-539 CNS
# SK-MEL-2 melanoma = test system: SK-MEL-2 melanoma
# SK-MEL-28 melanoma = test system: SK-MEL-28 melanoma
# SK-MEL-5 melanoma = test system: SK-MEL-5 melanoma
# SK-OV-3 ovarian = test system: SK-OV-3 ovarian
# SN12C renal = test system: SN12C renal
# SNB-19 CNS = test system: SNB-19 CNS
# SNB-75 CNS = test system: SNB-75 CNS
# SR leukemia = test system: SR leukemia
# SW-620 colon = test system: SW-620 colon
# T-47D breast = test system: T-47D breast
# TK-10 renal = test system: TK-10 renal
# U251 CNS = test system: U251 CNS
# UACC-257 melanoma = test system: UACC-257 melanoma
# UACC-62 melanoma = test system: UACC-62 melanoma
# UO-31 renal = test system: UO-31 renal
# MDA-MB-231 breast = test system: MDA-MB-231 breast
smiles,measurement,setting,value
COc1ccc(N(CC(=O)NCCC[Te]c2ccccc2)C(=O)CNC(=O)OC(C)(C)C)cc1,GI50,786-0 renal,3.75 µM
same,TGI,786-0 renal,13 µM
same,GI50,A498 renal,2.28 µM
same,TGI,A498 renal,5.35 µM
same,GI50,A549 NSCLC,0.521 µM
same,TGI,A549 NSCLC,2.17 µM
same,GI50,ACHN renal,3.12 µM
same,TGI,ACHN renal,8.86 µM
same,GI50,BT-549 breast,1.68 µM
same,TGI,BT-549 breast,4.86 µM
same,GI50,CAKI-1 renal,2.1 µM
same,TGI,CAKI-1 renal,5.6 µM
same,GI50,COLO 205 colon,2.01 µM
same,TGI,COLO 205 colon,3.83 µM
same,GI50,DU-145 prostate,2.91 µM
same,TGI,DU-145 prostate,7.6 µM
same,GI50,EKVX NSCLC,0.343 µM
same,TGI,EKVX NSCLC,2.35 µM
same,GI50,HCC-2998 colon,2.6 µM
same,TGI,HCC-2998 colon,6.6 µM
same,GI50,HCT-116 colon,2.07 µM
same,TGI,HCT-116 colon,6.45 µM
same,GI50,HCT-15 colon,3.15 µM
same,TGI,HCT-15 colon,11.7 µM
same,GI50,HL-60(TB) leukemia,2.08 µM
same,TGI,HL-60(TB) leukemia,5.6 µM
same,GI50,HOP-62 NSCLC,2.19 µM
same,TGI,HOP-62 NSCLC,4.73 µM
same,GI50,HOP-92 NSCLC,2.36 µM
same,TGI,HOP-92 NSCLC,4.94 µM
same,GI50,HS 578T breast,2.77 µM
same,TGI,HS 578T breast,7.31 µM
same,GI50,HT29 colon,3.82 µM
same,TGI,HT29 colon,13.9 µM
same,GI50,IGROV1 ovarian,2.24 µM
same,TGI,IGROV1 ovarian,5.42 µM
same,GI50,K-562 leukemia,5.5 µM
same,TGI,K-562 leukemia,> 100 µM
same,GI50,KM12 colon,3.33 µM
same,TGI,KM12 colon,11.4 µM
same,GI50,LOX IMVI melanoma,2.33 µM
same,TGI,LOX IMVI melanoma,5.76 µM
same,GI50,M14 melanoma,3.53 µM
same,TGI,M14 melanoma,10.6 µM
same,GI50,MALME-3M melanoma,15.7 µM
same,TGI,MALME-3M melanoma,32.8 µM
same,GI50,MCF7 breast,2.57 µM
same,TGI,MCF7 breast,7.59 µM
same,GI50,MDA-MB-435,3.31 µM
same,TGI,MDA-MB-435,13.5 µM
same,GI50,MOLT-4 leukemia,3.08 µM
same,TGI,MOLT-4 leukemia,9.89 µM
same,GI50,NCI-H226 lung,2.29 µM
same,TGI,NCI-H226 lung,5.36 µM
same,GI50,NCI-H23 lung,2.5 µM
same,TGI,NCI-H23 lung,6.61 µM
same,GI50,NCI-H460 lung,0.45 µM
same,TGI,NCI-H460 lung,1.85 µM
same,GI50,NCI-H522 lung,2.56 µM
same,TGI,NCI-H522 lung,10.6 µM
same,GI50,NCI/ADR-RES ovarian,2.91 µM
same,TGI,NCI/ADR-RES ovarian,7.16 µM
same,GI50,OVCAR-3 ovarian,3 µM
same,TGI,OVCAR-3 ovarian,7.88 µM
same,GI50,OVCAR-4 ovarian,22.6 µM
same,TGI,OVCAR-4 ovarian,> 100 µM
same,GI50,OVCAR-5 ovarian,3 µM
same,TGI,OVCAR-5 ovarian,7.48 µM
same,GI50,OVCAR-8 ovarian,2.41 µM
same,TGI,OVCAR-8 ovarian,6.92 µM
same,GI50,PC-3 prostate,1.72 µM
same,TGI,PC-3 prostate,10.1 µM
same,GI50,RPMI-8226 leukemia,2.4 µM
same,TGI,RPMI-8226 leukemia,7.3 µM
same,GI50,SF-268 CNS,2.7 µM
same,TGI,SF-268 CNS,7.56 µM
same,GI50,SF-295 CNS,1.27 µM
same,TGI,SF-295 CNS,4.11 µM
same,GI50,SF-539 CNS,2.14 µM
same,TGI,SF-539 CNS,4.84 µM
same,GI50,SK-MEL-2 melanoma,2.99 µM
same,TGI,SK-MEL-2 melanoma,6.77 µM
same,GI50,SK-MEL-28 melanoma,3.07 µM
same,TGI,SK-MEL-28 melanoma,10.1 µM
same,GI50,SK-MEL-5 melanoma,3.13 µM
same,TGI,SK-MEL-5 melanoma,9.13 µM
same,GI50,SK-OV-3 ovarian,2.34 µM
same,TGI,SK-OV-3 ovarian,4.83 µM
same,GI50,SN12C renal,2.06 µM
same,TGI,SN12C renal,4.97 µM
same,GI50,SNB-19 CNS,0.875 µM
same,TGI,SNB-19 CNS,9.64 µM
same,GI50,SNB-75 CNS,2.07 µM
same,TGI,SNB-75 CNS,7.43 µM
same,GI50,SR leukemia,1.66 µM
same,TGI,SR leukemia,7.75 µM
same,GI50,SW-620 colon,3.44 µM
same,TGI,SW-620 colon,14.4 µM
same,GI50,T-47D breast,11 µM
same,TGI,T-47D breast,40.9 µM
same,GI50,TK-10 renal,3.93 µM
same,TGI,TK-10 renal,10.8 µM
same,GI50,U251 CNS,2.37 µM
same,TGI,U251 CNS,6.51 µM
same,GI50,UACC-257 melanoma,8.49 µM
same,TGI,UACC-257 melanoma,23.9 µM
same,GI50,UACC-62 melanoma,1.65 µM
same,TGI,UACC-62 melanoma,3.79 µM
same,GI50,UO-31 renal,2.38 µM
same,TGI,UO-31 renal,9.04 µM
ClCCN(CCCl)c1ccc(/C=N/Nc2ccnc3ccccc23)cc1,TGI,A498 renal,46.7 µM
same,TGI,A549 NSCLC,3.38 µM
same,TGI,ACHN renal,3.37 µM
same,TGI,CAKI-1 renal,3.8 µM
same,TGI,DU-145 prostate,3.5 µM
same,TGI,HCT-15 colon,2.86 µM
same,TGI,HOP-62 NSCLC,4.75 µM
same,TGI,HOP-92 NSCLC,3.38 µM
same,TGI,HS 578T breast,5.1 µM
same,TGI,K-562 leukemia,3.15 µM
same,TGI,LOX IMVI melanoma,3.09 µM
same,TGI,MALME-3M melanoma,3.19 µM
same,TGI,MCF7 breast,> 100 µM
same,TGI,MDA-MB-231 breast,3.45 µM
same,TGI,MDA-MB-435,3.14 µM
same,TGI,NCI-H226 lung,3.48 µM
same,TGI,NCI-H23 lung,3.89 µM
same,TGI,NCI-H460 lung,> 100 µM
same,TGI,PC-3 prostate,2.99 µM
same,TGI,RPMI-8226 leukemia,3.97 µM
same,TGI,SF-295 CNS,2.99 µM
same,TGI,SK-MEL-5 melanoma,3.47 µM
same,TGI,SN12C renal,3.18 µM
same,TGI,SW-620 colon,4.48 µM
same,TGI,TK-10 renal,3.15 µM
same,TGI,U251 CNS,3.03 µM
same,TGI,UACC-62 melanoma,3.23 µM
CC(NC(=O)C(N)CCC(=O)O)C(=O)NCP(=O)(O)O (stereo not drawn),GI50,M14 melanoma,15.9 µg/mL
